# Starred links: 1 amine or outer side, 2 acyl side, 3 side chain; linkers in the order of their positions; H or OH if unused. Non-standard residues stand in square brackets, D forms with d. Residues, ends and D or L forms follow the SMILES beside them. *: point of attachment. dAla(cis-4-NHCOPyz-cHex) = N[C@H](C[C@H]1CC[C@@H](NC(=O)c2cnccn2)CC1)C(=O)O; X2 = O=C(N[C@H]1CC[C@@H](C[C@H](N[*:1])C(=O)[*:2])CC1)c1cnccn1; dPhe(4-Cl) = N[C@H](Cc1ccc(Cl)cc1)C(=O)O; X10 = O=C([C@@H](Cc1cnccn1)N[*:1])[*:2]; d2Nal = N[C@H](Cc1ccc2ccccc2c1)C(=O)O; dLys(Me2) = CN(C)CCCC[C@@H](N)C(=O)O; Lys(iPr) = CC(C)NCCCC[C@H](N)C(=O)O; Orn(iPr) = CC(C)NCCC[C@H](N)C(=O)O; Pyrazinecarbonyl = O=C(c1cnccn1)*; aIle = CC[C@@H](C)[C@H](N)C(=O)O; d3Pal = N[C@H](Cc1cccnc1)C(=O)O; Nicotinoyl = O=C(c1cccnc1)*; Picolinoyl = O=C(c1ccccn1)*; Bz = O=C(c1ccccc1)*
# System: anaesthesized rats
# Assay: wheal test, intradermal injection
# Format: in vivo, rat
# Set-up: Wheal (wheal response): unit not given here
# Conditions: 10 ug peptide intradermally
# How it was run: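 Anaesthetized rats given intradermal injection of 10 ug peptide in 100 ul saline; area of the wheal calculated from its diameter.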
row,Wheal Area,SMILES
1,122.8 ± 5.7 mm^2 /10 μg,CC(=O)N[C@H](Cc1ccc2ccccc2c1)C(=O)N[C@H](Cc1ccc(Cl)cc1)C(=O)N[C@H](Cc1cccnc1)C(=O)N[C@@H](CO)C(=O)N[C@@H](CCCCNC(=O)c1ccccn1)C(=O)N[C@H](C[C@H]1CC[C@@H](NC(=O)c2cnccn2)CC1)C(=O)N[C@@H](CC(C)C)C(=O)N[C@@H](CCCCNC(C)C)C(=O)N1CCC[C@H]1C(=O)N[C@H](C)C(N)=O [IBR 25897] (Ac-[d2Nal][dPhe(4-Cl)][d3Pal]SK(Picolinoyl)[dAla(cis-4-NHCOPyz-cHex)]L[Lys(iPr)]P[dA]-NH2)
2,113.2 ± 5.5 mm^2 /10 μg,CC(=O)N[C@H](Cc1ccc2ccccc2c1)C(=O)N[C@H](Cc1ccc(Cl)cc1)C(=O)N[C@H](Cc1cccnc1)C(=O)N[C@@H](CO)C(=O)N[C@@H](Cc1ccc(O)cc1)C(=O)N[C@H](CCCCNC(=O)c1ccccn1)C(=O)N[C@@H](CC(C)C)C(=O)N[C@@H](CCCNC(C)C)C(=O)N1CCC[C@H]1C(=O)N[C@H](C)C(N)=O [compound 26363] (Ac-[d2Nal][dPhe(4-Cl)][d3Pal]SY[dK](Picolinoyl)L[Orn(iPr)]P[dA]-NH2)
3,99.5 ± 4.5 mm^2 /10 μg,CC(=O)N[C@H](Cc1ccc2ccccc2c1)C(=O)N[C@H](Cc1ccc(Cl)cc1)C(=O)N[C@H](Cc1cccnc1)C(=O)N[C@@H](CO)C(=O)N[C@@H](C[C@H]1CC[C@@H](NC(=O)c2cnccn2)CC1)C(=O)N[C@H](CCCCNC(=O)c1ccccn1)C(=O)N[C@@H](CC(C)C)C(=O)N[C@@H](CCCCNC(C)C)C(=O)N1CCC[C@H]1C(=O)N[C@H](C)C(N)=O [compound 26180] (Ac-[d2Nal][dPhe(4-Cl)][d3Pal]S[X2][dK](Picolinoyl)L[Lys(iPr)]P[dA]-NH2)
4,103.9 ± 3.4 mm^2 /10 μg,CC(=O)N[C@H](Cc1ccc2ccccc2c1)C(=O)N[C@H](Cc1ccc(Cl)cc1)C(=O)N[C@H](Cc1cnccn1)C(=O)N[C@@H](CO)C(=O)N[C@@H](CCCCNC(=O)c1ccccn1)C(=O)N[C@H](CCCCNC(=O)c1ccccn1)C(=O)N[C@@H](CC(C)C)C(=O)N[C@@H](CCCNC(C)C)C(=O)N1CCC[C@H]1C(=O)N[C@H](C)C(N)=O [compound 26119] (Ac-[d2Nal][dPhe(4-Cl)][X10]SK(Picolinoyl)[dK](Picolinoyl)L[Orn(iPr)]P[dA]-NH2)
5,122.8 ± 5.7 mm^2 /10 μg,CC(=O)N[C@H](Cc1ccc2ccccc2c1)C(=O)N[C@H](Cc1ccc(Cl)cc1)C(=O)N[C@H](Cc1cccnc1)C(=O)N[C@@H](CO)C(=O)N[C@@H](CCCCNC(=O)c1ccccn1)C(=O)N[C@H](C[C@H]1CC[C@@H](NC(=O)c2cnccn2)CC1)C(=O)N[C@@H](CC(C)C)C(=O)N[C@@H](CCCCNC(C)C)C(=O)N1CCC[C@H]1C(=O)N[C@H](CO)C(N)=O [compound 26348] (Ac-[d2Nal][dPhe(4-Cl)][d3Pal]SK(Picolinoyl)[dAla(cis-4-NHCOPyz-cHex)]L[Lys(iPr)]P[dS]-NH2)
6,78.6 ± 4.5 mm^2 /10 μg,CC[C@@H](C)[C@H](NC(=O)[C@@H](CCCCNC(=O)c1ccccn1)NC(=O)[C@H](CCCCNC(=O)c1ccccn1)NC(=O)[C@H](CO)NC(=O)[C@@H](Cc1cccnc1)NC(=O)[C@@H](Cc1ccc(Cl)cc1)NC(=O)[C@@H](Cc1ccc2ccccc2c1)NC(C)=O)C(=O)N[C@@H](CCCNC(C)C)C(=O)N1CCC[C@H]1C(=O)N[C@H](C)C(N)=O [compound 26178] (Ac-[d2Nal][dPhe(4-Cl)][d3Pal]SK(Picolinoyl)[dK](Picolinoyl)[aIle][Orn(iPr)]P[dA]-NH2)
7,119.6 ± 6.6 mm^2 /10 μg,CC(=O)N[C@H](Cc1ccc2ccccc2c1)C(=O)N[C@H](Cc1ccc(Cl)cc1)C(=O)N[C@H](Cc1cccnc1)C(=O)N[C@@H](CO)C(=O)N[C@@H](CCCCNC(=O)c1ccccn1)C(=O)N[C@H](CCCCNC(=O)c1ccccn1)C(=O)N[C@H](C(=O)N[C@@H](CCCNC(C)C)C(=O)N1CCC[C@H]1C(=O)N[C@H](C)C(N)=O)C(C)C [compound 26118] (Ac-[d2Nal][dPhe(4-Cl)][d3Pal]SK(Picolinoyl)[dK](Picolinoyl)V[Orn(iPr)]P[dA]-NH2)
8,104.3 ± 10.5 mm^2 /10 μg,CC(=O)N[C@H](Cc1ccc2ccccc2c1)C(=O)N[C@H](Cc1ccc(Cl)cc1)C(=O)N[C@H](Cc1cccnc1)C(=O)N[C@@H](CO)C(=O)N[C@@H](CCCCNC(=O)c1cccnc1)C(=O)N[C@H](CCCCNC(=O)c1cnccn1)C(=O)N[C@@H](CC(C)C)C(=O)N[C@@H](CCCNC(C)C)C(=O)N1CCC[C@H]1C(=O)N[C@H](C)C(N)=O [compound 25991] (Ac-[d2Nal][dPhe(4-Cl)][d3Pal]SK(Nicotinoyl)[dK](Pyrazinecarbonyl)L[Orn(iPr)]P[dA]-NH2)

# Same assay, conditions: Table I; 10 ug peptide intradermally
row,Wheal,SMILES
1,122.2 ± 5.1 mm^2 /10,CC(=O)N[C@H](Cc1ccc2ccccc2c1)C(=O)N[C@H](Cc1ccc(Cl)cc1)C(=O)N[C@H](Cc1cccnc1)C(=O)N[C@@H](CO)C(=O)N[C@@H](CCCCNC(=O)c1cccnc1)C(=O)N[C@H](CCCCNC(=O)c1cnccn1)C(=O)N[C@@H](CC(C)C)C(=O)N[C@@H](CCCCNC(C)C)C(=O)N1CCC[C@H]1C(=O)N[C@H](C)C(N)=O [compound 25649] (Ac-[d2Nal][dPhe(4-Cl)][d3Pal]SK(Nicotinoyl)[dK](Pyrazinecarbonyl)L[Lys(iPr)]P[dA]-NH2)
2,139.9 mm^2 /10,CC(=O)N[C@H](Cc1ccc(Cl)cc1)C(=O)N[C@H](Cc1ccc(Cl)cc1)C(=O)N[C@H](Cc1cccnc1)C(=O)N[C@@H](CO)C(=O)N[C@@H](Cc1ccc(O)cc1)C(=O)N[C@H](CCCCNC(=O)c1cccnc1)C(=O)N[C@@H](CC(C)C)C(=O)N[C@@H](CCCCNC(C)C)C(=O)N1CCC[C@H]1C(=O)N[C@H](C)C(N)=O [compound 25337] (Ac-[dPhe(4-Cl)][dPhe(4-Cl)][d3Pal]SY[dK](Nicotinoyl)L[Lys(iPr)]P[dA]-NH2)
3,132.7 mm^2 /10,CC(=O)N[C@H](Cc1ccc2ccccc2c1)C(=O)N[C@H](Cc1ccc(Cl)cc1)C(=O)N[C@H](Cc1cccnc1)C(=O)N[C@@H](CO)C(=O)N[C@@H](CCCCNC(C)C)C(=O)N[C@H](CCCCNC(=O)c1cccnc1)C(=O)N[C@@H](CC(C)C)C(=O)N[C@@H](CCCCNC(C)C)C(=O)N1CCC[C@H]1C(=O)N[C@H](C)C(N)=O [compound 24543] (Ac-[d2Nal][dPhe(4-Cl)][d3Pal]S[Lys(iPr)][dK](Nicotinoyl)L[Lys(iPr)]P[dA]-NH2)
4,113.2 mm^2 /10,CC(=O)N[C@H](Cc1ccc2ccccc2c1)C(=O)N[C@H](Cc1ccc(Cl)cc1)C(=O)N[C@H](Cc1ccc(O)cc1)C(=O)N[C@@H](CO)C(=O)N[C@@H](CCCNC(=N)N)C(=O)N[C@H](CCCCNC(=O)c1cccnc1)C(=O)N[C@@H](CC(C)C)C(=O)N[C@@H](CCCNC(=N)N)C(=O)N1CCC[C@H]1C(=O)N[C@H](C)C(N)=O [compound 24446] (Ac-[d2Nal][dPhe(4-Cl)][dY]SR[dK](Nicotinoyl)LRP[dA]-NH2)
5,119.6 mm^2 /10,CC(=O)N[C@H](Cc1ccc2ccccc2c1)C(=O)N[C@H](Cc1ccc(Cl)cc1)C(=O)N[C@H](Cc1cccnc1)C(=O)N[C@@H](CO)C(=O)N[C@@H](CCCCNC(=O)c1cccnc1)C(=O)N[C@H](CCCCNC(=O)c1ccccc1)C(=O)N[C@@H](CC(C)C)C(=O)N[C@@H](CCCCNC(C)C)C(=O)N1CCC[C@H]1C(=O)N[C@H](C)C(N)=O [compound 25332] (Ac-[d2Nal][dPhe(4-Cl)][d3Pal]SK(Nicotinoyl)[dK](Bz)L[Lys(iPr)]P[dA]-NH2)
6,116.5 mm^2 /10,CC[C@H](C)[C@H](NC(=O)[C@H](CO)NC(=O)[C@@H](Cc1cccnc1)NC(=O)[C@@H](Cc1ccc(Cl)cc1)NC(=O)[C@@H](Cc1ccc2ccccc2c1)NC(C)=O)C(=O)N[C@H](CCCCNC(=O)c1cccnc1)C(=O)N[C@@H](CC(C)C)C(=O)N[C@@H](CCCNC(C)C)C(=O)N1CCC[C@H]1C(=O)N[C@H](C)C(N)=O [compound 25145] (Ac-[d2Nal][dPhe(4-Cl)][d3Pal]SI[dK](Nicotinoyl)L[Orn(iPr)]P[dA]-NH2)
7,119.5 ± 3.2 mm^2 /10,CC(=O)N[C@H](Cc1ccc2ccccc2c1)C(=O)N[C@H](Cc1ccc(Cl)cc1)C(=O)N[C@H](Cc1cccnc1)C(=O)N[C@@H](CO)C(=O)N[C@@H](Cc1ccc(O)cc1)C(=O)N[C@H](CCCCNC(=O)c1cccnc1)C(=O)N[C@@H](CC(C)C)C(=O)N[C@@H](CCCCN)C(=O)N1CCC[C@H]1C(=O)N[C@H](C)C(N)=O [compound 24825] (Ac-[d2Nal][dPhe(4-Cl)][d3Pal]SY[dK](Nicotinoyl)LKP[dA]-NH2)
8,123.0 mm^2 /10,CC(=O)N[C@H](Cc1ccc2ccccc2c1)C(=O)N[C@H](Cc1ccc(Cl)cc1)C(=O)N[C@H](Cc1cccnc1)C(=O)N[C@@H](CO)C(=O)N[C@@H](CCCCNC(=O)c1ccccn1)C(=O)N[C@H](CCCCNC(=O)c1ccccn1)C(=O)N[C@@H](CC(C)C)C(=O)N[C@@H](CCCCNC(C)C)C(=O)N1CCC[C@H]1C(=O)N[C@H](C)C(N)=O [compound 25147] (Ac-[d2Nal][dPhe(4-Cl)][d3Pal]SK(Picolinoyl)[dK](Picolinoyl)L[Lys(iPr)]P[dA]-NH2)
9,136.3 mm^2 /10,CC(=O)N[C@H](Cc1ccc2ccccc2c1)C(=O)N[C@H](Cc1ccc(Cl)cc1)C(=O)N[C@H](Cc1cccnc1)C(=O)N[C@@H](CO)C(=O)N[C@@H](Cc1ccc(O)cc1)C(=O)N[C@H](CCCNC(=N)N)C(=O)N[C@@H](CC(C)C)C(=O)N[C@@H](CCCCNC(=O)c1cccnc1)C(=O)N1CCC[C@H]1C(=O)N[C@H](C)C(N)=O [compound 24749] (Ac-[d2Nal][dPhe(4-Cl)][d3Pal]SY[dR]LK(Nicotinoyl)P[dA]-NH2)
10,111 ± 2 mm^2 /10,CC(=O)N[C@H](Cc1ccc2ccccc2c1)C(=O)N[C@H](Cc1ccc(Cl)cc1)C(=O)N[C@H](Cc1cccnc1)C(=O)N[C@@H](CO)C(=O)N[C@@H](CCCCNC(=O)c1cccnc1)C(=O)N[C@H](CCCCN(C)C)C(=O)N[C@@H](CC(C)C)C(=O)N[C@@H](CCCCNC(C)C)C(=O)N1CCC[C@H]1C(=O)N[C@H](C)C(N)=O [compound 25591] (Ac-[d2Nal][dPhe(4-Cl)][d3Pal]SK(Nicotinoyl)[dLys(Me2)]L[Lys(iPr)]P[dA]-NH2)

# Same assay, conditions: Table XIV and text, unit not given
row,Wheal (wheal response),SMILES
1,99.5 ± 4.5,CC(=O)N[C@H](Cc1ccc2ccccc2c1)C(=O)N[C@H](Cc1ccc(Cl)cc1)C(=O)N[C@H](Cc1cccnc1)C(=O)N[C@@H](CO)C(=O)N[C@@H](C[C@H]1CC[C@@H](NC(=O)c2cnccn2)CC1)C(=O)N[C@H](CCCCNC(=O)c1ccccn1)C(=O)N[C@@H](CC(C)C)C(=O)N[C@@H](CCCCNC(C)C)C(=O)N1CCC[C@H]1C(=O)N[C@H](C)C(N)=O [compound 26180] (Ac-[d2Nal][dPhe(4-Cl)][d3Pal]S[X2][dK](Picolinoyl)L[Lys(iPr)]P[dA]-NH2)

# Reference: US5763404A, “Methods for using LHRH antagonists with low histamine release” (priority 1995, dated 1998)
